{"source": "patent US10597388B2", "about": "“Pyridazinone herbicides” (FMC CORPORATION, priority 2014, dated 2020)", "type_in_all_cases": "in vivo", "key": {"[1]": {"tested_on": "johnsongrass (Sorghum halepense)", "test": "Test C greenhouse herbicide test, pre- and postemergence", "how_it_was_run": "(§1)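 Pre- and postemergence greenhouse screen; values are visual control ratings, 0 meaning no effect and 100 complete kill, assigned relative to untreated plants after 13 to 15 d.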"}, "[2]": {"tested_on": "velvetleaf (Abutilon theophrasti)", "test": "Test C greenhouse herbicide test, pre- and postemergence", "how_it_was_run": "as §1"}, "[3]": {"tested_on": "oilseed rape (Brassica napus)", "test": "Test C greenhouse herbicide test, pre- and postemergence", "how_it_was_run": "as §1"}, "[4]": {"tested_on": "galium (catchweed bedstraw, Galium aparine)", "test": "Test C greenhouse herbicide test, pre- and postemergence", "how_it_was_run": "as §1"}, "soybean (Glycine max)": {"tested_on": "soybean (Glycine max)", "test": "Test C greenhouse herbicide test, pre- and postemergence", "how_it_was_run": "as §1"}, "[5]": {"tested_on": "crabgrass, large (large crabgrass, Digitaria sanguinalis)", "test": "Test C greenhouse herbicide test, pre- and postemergence", "how_it_was_run": "as §1"}, "[6]": {"tested_on": "blackgrass (Alopecurus myosuroides)", "test": "Test C greenhouse herbicide test, pre- and postemergence", "how_it_was_run": "as §1"}, "[7]": {"tested_on": "wheat (winter wheat, Triticum aestivum)", "test": "Test C greenhouse herbicide test, pre- and postemergence", "how_it_was_run": "as §1"}, "corn (Zea mays)": {"tested_on": "corn (Zea mays)", "test": "Test C greenhouse herbicide test, pre- and postemergence", "how_it_was_run": "as §1"}, "[8]": {"tested_on": "morningglory (Ipomoea coccinea)", "test": "Test C greenhouse herbicide test, pre- and postemergence", "how_it_was_run": "as §1"}, "[9]": {"tested_on": "waterhemp (common waterhemp, Amaranthus rudis)", "test": "Test C greenhouse herbicide test, pre- and postemergence", "how_it_was_run": "as §1"}, "[10]": {"tested_on": "ragweed (common ragweed, Ambrosia elatior)", "test": "Test C greenhouse herbicide test, pre- and postemergence", "how_it_was_run": "as §1"}, "[11]": {"tested_on": "pigweed (Amaranthus retroflexus)", "test": "Test C greenhouse herbicide test, pre- and postemergence", "how_it_was_run": "as §1"}, "[12]": {"tested_on": "barnyardgrass (Echinochloa crus-galli)", "test": "Test C greenhouse herbicide test, pre- and postemergence", "how_it_was_run": "as §1"}, "[13]": {"tested_on": "foxtail, giant (giant foxtail, Setaria faberii)", "test": "Test C greenhouse herbicide test, pre- and postemergence", "how_it_was_run": "as §1"}, "[14]": {"tested_on": "oat, wild (wild oat, Avena fatua)", "test": "Test C greenhouse herbicide test, postemergence", "how_it_was_run": "(§2)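 Visual injury scores (0–100, where 100 means complete control) were assigned 13 to 15 d after postemergence application, by comparison with untreated plants. Treated seedlings stood 2 to 18 cm tall, at the 1- to 4-leaf stage.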"}, "kochia (Kochia scoparia)": {"tested_on": "kochia (Kochia scoparia)", "test": "Test C greenhouse herbicide test, postemergence", "how_it_was_run": "as §2"}, "[15]": {"conditions": "Postemergence, 31 g ai/ha, 0 to 100 scale (0 no effect, 100 complete control)"}, "[16]": {"conditions": "Postemergence, 125 g ai/ha, scale 0 to 100, 0 is no effect, 100 is complete control"}, "[17]": {"conditions": "Postemergence, 250 g ai/ha, scale 0 to 100, 0 no effect, 100 complete control, 13 to 15 d"}, "[18]": {"conditions": "postemergence, 62 g ai/ha, scale 0 to 100, 0 no effect, 100 complete control"}}, "data": [{"smiles": "Cc1nn(C)c(=O)c(-c2c(C)sc3ccccc23)c1O", "note": "[Compound 65]", "values": [{"measurement": "Johnsongrass plant response rating", "setting": "[1]; [15]", "result": 5}, {"measurement": "Plant response rating, Johnsongrass", "setting": "[1]; [16]", "result": 5}, {"measurement": "Plant response rating, Johnsongrass", "setting": "[1]; [17]", "result": 5}, {"measurement": "Johnsongrass plant response rating", "setting": "[1]; [18]", "result": 5}, {"measurement": "Velvetleaf plant response rating", "setting": "[2]; [15]", "result": 10}, {"measurement": "Plant response rating, Velvetleaf", "setting": "[2]; [16]", "result": 65}, {"measurement": "Plant response rating, Velvetleaf", "setting": "[2]; [17]", "result": 75}, {"measurement": "Velvetleaf plant response rating", "setting": "[2]; [18]", "result": 20}, {"measurement": "Oilseed Rape plant response rating", "setting": "[3]; [15]", "result": 0}, {"measurement": "Plant response rating, Oilseed Rape", "setting": "[3]; [16]", "result": 0}, {"measurement": "Plant response rating, Oilseed Rape", "setting": "[3]; [17]", "result": 5}, {"measurement": "Oilseed Rape plant response rating", "setting": "[3]; [18]", "result": 0}, {"measurement": "Galium plant response rating", "setting": "[4]; [15]", "result": 85}, {"measurement": "Plant response rating, Galium", "setting": "[4]; [16]", "result": 90}, {"measurement": "Plant response rating, Galium", "setting": "[4]; [17]", "result": 90}, {"measurement": "Galium plant response rating", "setting": "[4]; [18]", "result": 85}, {"measurement": "Soybean plant response rating", "setting": "soybean (Glycine max); [15]", "result": 5}, {"measurement": "Plant response rating, Soybean", "setting": "soybean (Glycine max); [16]", "result": 5}, {"measurement": "Plant response rating, Soybean", "setting": "soybean (Glycine max); [17]", "result": 10}, {"measurement": "Soybean plant response rating", "setting": "soybean (Glycine max); [18]", "result": 5}, {"measurement": "Crabgrass, Large plant response rating", "setting": "[5]; [15]", "result": 5}, {"measurement": "Plant response rating, Crabgrass, Large", "setting": "[5]; [16]", "result": 20}, {"measurement": "Plant response rating, Crabgrass, Large", "setting": "[5]; [17]", "result": 25}, {"measurement": "Crabgrass, Large plant response rating", "setting": "[5]; [18]", "result": 20}, {"measurement": "Blackgrass plant response rating", "setting": "[6]; [15]", "result": 5}, {"measurement": "Plant response rating, Blackgrass", "setting": "[6]; [16]", "result": 10}, {"measurement": "Plant response rating, Blackgrass", "setting": "[6]; [17]", "result": 40}, {"measurement": "Blackgrass plant response rating", "setting": "[6]; [18]", "result": 5}, {"measurement": "Wheat plant response rating", "setting": "[7]; [15]", "result": 0}, {"measurement": "Plant response rating, Wheat", "setting": "[7]; [16]", "result": 0}, {"measurement": "Plant response rating, Wheat", "setting": "[7]; [17]", "result": 0}, {"measurement": "Wheat plant response rating", "setting": "[7]; [18]", "result": 0}, {"measurement": "Corn plant response rating", "setting": "corn (Zea mays); [15]", "result": 5}, {"measurement": "Plant response rating, Corn", "setting": "corn (Zea mays); [16]", "result": 5}, {"measurement": "Plant response rating, Corn", "setting": "corn (Zea mays); [17]", "result": 5}, {"measurement": "Corn plant response rating", "setting": "corn (Zea mays); [18]", "result": 5}, {"measurement": "Morningglory plant response rating", "setting": "[8]; [15]", "result": 75}, {"measurement": "Plant response rating, Morningglory", "setting": "[8]; [16]", "result": 95}, {"measurement": "Plant response rating, Morningglory", "setting": "[8]; [17]", "result": 95}, {"measurement": "Morningglory plant response rating", "setting": "[8]; [18]", "result": 85}, {"measurement": "Waterhemp plant response rating", "setting": "[9]; [15]", "result": 60}, {"measurement": "Plant response rating, Waterhemp", "setting": "[9]; [16]", "result": 75}, {"measurement": "Plant response rating, Waterhemp", "setting": "[9]; [17]", "result": 85}, {"measurement": "Waterhemp plant response rating", "setting": "[9]; [18]", "result": 75}, {"measurement": "Ragweed plant response rating", "setting": "[10]; [15]", "result": 55}, {"measurement": "Plant response rating, Ragweed", "setting": "[10]; [16]", "result": 80}, {"measurement": "Plant response rating, Ragweed", "setting": "[10]; [17]", "result": 90}, {"measurement": "Ragweed plant response rating", "setting": "[10]; [18]", "result": 85}, {"measurement": "Pigweed plant response rating", "setting": "[11]; [15]", "result": 90}, {"measurement": "Plant response rating, Pigweed", "setting": "[11]; [16]", "result": 98}, {"measurement": "Plant response rating, Pigweed", "setting": "[11]; [17]", "result": 100}, {"measurement": "Pigweed plant response rating", "setting": "[11]; [18]", "result": 90}, {"measurement": "Barnyardgrass plant response rating", "setting": "[12]; [15]", "result": 10}, {"measurement": "Plant response rating, Barnyardgrass", "setting": "[12]; [16]", "result": 35}, {"measurement": "Plant response rating, Barnyardgrass", "setting": "[12]; [17]", "result": 50}, {"measurement": "Barnyardgrass plant response rating", "setting": "[12]; [18]", "result": 15}, {"measurement": "Foxtail, Giant plant response rating", "setting": "[13]; [15]", "result": 10}, {"measurement": "Plant response rating, Foxtail, Giant", "setting": "[13]; [16]", "result": 35}, {"measurement": "Plant response rating, Foxtail, Giant", "setting": "[13]; [17]", "result": 60}, {"measurement": "Foxtail, Giant plant response rating", "setting": "[13]; [18]", "result": 20}, {"measurement": "Oat, Wild plant response rating", "setting": "[14]; [15]", "result": 25}, {"measurement": "Plant response rating, Oat, Wild", "setting": "[14]; [16]", "result": 50}, {"measurement": "Plant response rating, Oat, Wild", "setting": "[14]; [17]", "result": 70}, {"measurement": "Oat, Wild plant response rating", "setting": "[14]; [18]", "result": 35}, {"measurement": "Kochia plant response rating", "setting": "kochia (Kochia scoparia); [15]", "result": 90}, {"measurement": "Plant response rating, Kochia", "setting": "kochia (Kochia scoparia); [16]", "result": 90}, {"measurement": "Plant response rating, Kochia", "setting": "kochia (Kochia scoparia); [17]", "result": 100}, {"measurement": "Kochia plant response rating", "setting": "kochia (Kochia scoparia); [18]", "result": 90}]}]}
